{"source": "paper PMC10580965", "about": "(Microbiology Spectrum, 2023)", "key": {"[1]": {"system": "C. pseudotuberculosis ΔlysX"}, "[2]": {"system": "C. pseudotuberculosis ΔalaDAGS"}}, "note": "Like-named read-outs stand apart in the source and are kept apart here. Bridge positions count the residues as written; N and C are the ends. Square brackets hold non-standard residues; d marks the D form. Peptide text beside a SMILES is read from it. * marks the point of attachment. Ileψ(thiazoline)Cys = CC[C@H](C)[C@H](N)C1=N[C@H](C(=O)*)CS1; dOrn = NCCC[C@@H](N)C(=O)O; X1 = CC[C@H](C)CCCCC(=O)*; Dab = NCC[C@H](N)C(=O)O"}
{"molecule": "CO/N=C(\\C(=O)N[C@@H]1C(=O)N2C(C(=O)O)=C(CSc3nc(=O)c(=O)[nH]n3C)CS[C@H]12)c1csc(N)n1", "note": "[Ceftriaxone]", "values": [{"measurement": "protective advantage conferred by lysX", "setting": "[1]", "value": "no protective advantage"}]}
{"molecule": "CC[C@H](C)CCCCC(=O)N[C@@H](CCN)C(=O)N[C@H](C(=O)N[C@@H](CCN)C(=O)N[C@H]1CCNC(=O)[C@H]([C@@H](C)O)NC(=O)[C@H](CCN)NC(=O)[C@H](CCN)NC(=O)[C@H](CC(C)C)NC(=O)[C@@H](Cc2ccccc2)NC(=O)[C@H](CCN)NC1=O)[C@@H](C)O", "note": "[Polymyxin B] (X1-[Dab]T[Dab][Dab][Dab][dF]L[Dab][Dab]T; lactam 4-C (inferred); N-terminus assumed)", "values": [{"measurement": "MIC ΔlysX", "setting": "[1]; 24 h", "value": 10, "unit": "mg/L"}, {"measurement": "MIC ΔalaDAGS", "setting": "[2]; 24 h", "value": 640, "unit": "mg/L"}]}
{"molecule": "CNC(C)C1CCC(N)C(OC2C(N)CC(N)C(OC3OCC(C)(O)C(NC)C3O)C2O)O1", "note": "(stereo not shown) [Gentamicin]", "values": [{"measurement": "MIC ΔlysX", "setting": "[1]", "value": 0.078, "unit": "mg/L"}]}
{"molecule": "NC[C@H]1O[C@H](O[C@H]2[C@H](O)[C@@H](O[C@H]3O[C@H](CO)[C@@H](O)[C@H](N)[C@H]3O)[C@H](N)C[C@@H]2N)[C@H](O)[C@@H](O)[C@@H]1O", "note": "[Kanamycin]", "values": [{"measurement": "MIC ΔlysX", "setting": "[1]", "value": 1.25, "unit": "mg/L"}, {"measurement": "wt/ΔlysX (fold-change)", "setting": "[1]", "value": 8, "unit": "fold-change"}, {"measurement": "MIC ΔalaDAGS", "setting": "[2]", "value": 10, "unit": "mg/L"}]}
{"molecule": "Nisin", "values": [{"measurement": "MIC ΔlysX", "setting": "[1]", "value": 2.5, "unit": "mg/L"}, {"measurement": "wt/ΔlysX (fold-change)", "setting": "[1]", "value": 32, "unit": "fold-change"}, {"measurement": "MIC ΔalaDAGS", "setting": "[2]", "value": 80, "unit": "mg/L"}]}
{"molecule": "CCCNC[C@]1(O)[C@H](C)O[C@@H](O[C@H]2[C@H](C)[C@@H](O[C@@H]3O[C@H](C)C[C@H](N(C)C)[C@H]3O)[C@](C)(O)C[C@@H](C)CN[C@H](C)[C@@H](O)[C@](C)(O)[C@@H](CC)OC(=O)[C@@H]2C)C[C@@]1(C)OC", "note": "[Tulathromycin]", "values": [{"measurement": "MIC ΔlysX", "setting": "[1]", "value": 1.25, "unit": "mg/L"}, {"measurement": "wt/ΔlysX (fold-change)", "setting": "[1]", "value": 2, "unit": "fold-change"}, {"measurement": "MIC ΔalaDAGS", "setting": "[2]", "value": 2.5, "unit": "mg/L"}]}
{"molecule": "CC[C@H](C)[C@H](NC(=O)CN)C(=O)NCC(=O)N[C@@H](C)C(=O)N[C@H](C(=O)N[C@@H](CC(C)C)C(=O)N[C@@H](CCCCN)C(=O)N[C@H](C(=O)N[C@@H](CC(C)C)C(=O)N[C@H](C(=O)N[C@H](C(=O)NCC(=O)N[C@@H](CC(C)C)C(=O)N1CCC[C@H]1C(=O)N[C@@H](C)C(=O)N[C@@H](CC(C)C)C(=O)N[C@H](C(=O)N[C@@H](CO)C(=O)N[C@@H](Cc1c[nH]c2ccccc12)C(=O)N[C@H](C(=O)N[C@@H](CCCCN)C(=O)N[C@@H](CCCNC(=N)N)C(=O)N[C@@H](CCCCN)C(=O)N[C@@H](CCCNC(=N)N)C(=O)N[C@@H](CCC(N)=O)C(=O)N[C@@H](CCC(N)=O)C(N)=O)[C@@H](C)CC)[C@@H](C)CC)[C@@H](C)O)[C@@H](C)O)C(C)C)C(C)C", "note": "[Melittin]", "values": [{"measurement": "wt/ΔlysX (fold-change)", "setting": "[1]", "value": ">4", "unit": "fold-change"}, {"measurement": "MIC ΔlysX", "setting": "[1]; 24 h", "value": 10, "unit": "mg/L"}, {"measurement": "MIC ΔalaDAGS", "setting": "[2]; 24 h", "value": ">40", "unit": "mg/L"}]}
{"molecule": "CC[C@H](C)[C@H](N)C1=N[C@H](C(=O)N[C@@H](CC(C)C)C(=O)N[C@H](CCC(=O)O)C(=O)N[C@H](C(=O)N[C@H]2CCCCNC(=O)[C@H](CC(N)=O)NC(=O)[C@@H](CC(=O)O)NC(=O)[C@H](Cc3cnc[nH]3)NC(=O)[C@@H](Cc3ccccc3)NC(=O)[C@H]([C@@H](C)CC)NC(=O)[C@@H](CCCN)NC2=O)[C@@H](C)CC)CS1", "note": "[Bacitracin] ({Ileψ(thiazoline)Cys}-L[dE]IK[dOrn]I[dF]H[dD]N; lactam 4-C (inferred); N-terminus assumed)", "values": [{"measurement": "wt/ΔlysX (fold-change)", "setting": "[1]", "value": 2, "unit": "fold-change"}, {"measurement": "MIC ΔlysX", "setting": "[1]; 24 h", "value": 3.2, "unit": "mg/L"}, {"measurement": "MIC ΔalaDAGS", "setting": "[2]; 24 h", "value": 6.4, "unit": "mg/L"}]}
{"molecule": "CN[C@H](CC(C)C)C(=O)N[C@H]1C(=O)N[C@@H](CC(N)=O)C(=O)N[C@H]2C(=O)N[C@H]3C(=O)N[C@H](C(=O)N[C@H](C(=O)O)c4cc(O)cc(O)c4-c4cc3ccc4O)[C@H](O)c3ccc(c(Cl)c3)Oc3cc2cc(c3O[C@@H]2O[C@H](CO)[C@@H](O)[C@H](O)[C@H]2O[C@H]2C[C@](C)(N)[C@H](O)[C@H](C)O2)Oc2ccc(cc2Cl)[C@H]1O", "note": "[Vancomycin]", "values": [{"measurement": "wt/ΔlysX (fold-change)", "setting": "[1]", "value": 2, "unit": "fold-change"}, {"measurement": "MIC ΔlysX", "setting": "[1]; 24 h", "value": 0.375, "unit": "mg/L"}, {"measurement": "MIC ΔalaDAGS", "setting": "[2]; 24 h", "value": 0.75, "unit": "mg/L"}]}
